Measured values taken from PubChem BioAssay AID256 (DTP/NCI, 2004).
“And” between values parts separate entries of the source, which are not always exact repeats. Identical values can stand only once. Inconclusive results and toxic doses are left out. How the source made its calls: active means survival T/C of 150% or more; inactive means T/C below 125% in these data.

Tested on: CD2F1 mice, L1210 leukemia ip, survival T/C
Assay: NCI In Vivo Anticancer Drug Screen. Data for tumor model L1210 Leukemia (intraperitoneal) in CD2F1 (CDF1) mice
Details: endpoint: mean survival time, higher = longer survival
In short: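 Tumor-bearing mice (transplanted tumor) were split into treated and vehicle control groups, and the measured endpoint of each treated group was divided by that of its vehicle controls.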

[1] = dose: 100.0 mg/kg/injection, schedule: Q01DX009 (ip), vehicle: saline with Tween-80
[2] = dose: 100.0 mg/kg/injection, schedule: Q04DX003 (ip), vehicle: saline with Tween-80
[3] = dose: 200.0 mg/kg/injection, schedule: Q04DX003 (ip), vehicle: saline with Tween-80
[4] = dose: 400.0 mg/kg/injection, schedule: Q04DX003 (ip), vehicle: saline with Tween-80
[5] = dose: 200.0 mg/kg/injection, schedule: Q01DX009 (ip), vehicle: saline with Tween-80
[6] = dose: 100.0 mg/kg/injection, schedule: Q04DX003 (ip), vehicle: saline
[7] = dose: 100.0 mg/kg/injection, schedule: Q01DX001 (ip), vehicle: saline
[8] = dose: 25.0 mg/kg/injection, schedule: Q01DX009 (ip), vehicle: saline
[9] = dose: 50.0 mg/kg/injection, schedule: Q01DX009 (ip), vehicle: saline

Measured: T/C

CNC(=O)/C=C/C1=CN2C(=O)c3ccc(C)c(O)c3NC(OC)C2C1 (configuration not stated)
inactive: dose: 0.01 mg/kg/injection, schedule: Q01DX009 (ip), vehicle: saline 105 % of control and 108 % of control | dose: 0.02 mg/kg/injection, schedule: Q01DX009 (ip), vehicle: saline 95 % of control | dose: 0.03 mg/kg/injection, schedule: Q01DX009 (ip), vehicle: saline 112 % of control | dose: 0.05 mg/kg/injection, schedule: Q01DX009 (ip), vehicle: saline 100 % of control and 106 % of control and 108 % of control | dose: 0.1 mg/kg/injection, schedule: Q01DX009 (ip), vehicle: saline 115 % of control and 102 % of control and 106 % of control | dose: 0.2 mg/kg/injection, schedule: Q01DX009 (ip), vehicle: saline 115 % of control and 100 % of control | dose: 0.4 mg/kg/injection, schedule: Q01DX009 (ip), vehicle: saline 112 % of control

Nc1cccc(OCC(O)CN2CCN(c3ccccc3)CC2)c1 (configuration not stated)
inactive: dose: 50.0 mg/kg/injection, schedule: Q04DX002 (ip), vehicle: saline with Tween-80 93 % of control | dose: 100.0 mg/kg/injection, schedule: Q04DX002 (ip), vehicle: saline with Tween-80 89 % of control and 94 % of control | dose: 200.0 mg/kg/injection, schedule: Q04DX002 (ip), vehicle: saline with Tween-80 112 % of control

O=P(=O)OP(=O)=O.[O]=[W](=[O])=[O]
inactive: [1] 92 % of control | [2] 100 % of control | [3] 100 % of control | [4] 102 % of control

CC(C)CC(N)C(=O)NCCCCCCCCCCNC(=O)C(N)CC(C)C (configuration not stated)
inactive: dose: 6.25 mg/kg/injection, schedule: Q01DX010 (ip), vehicle: saline 100 % of control | dose: 12.5 mg/kg/injection, schedule: Q01DX010 (ip), vehicle: saline 113 % of control | dose: 25.0 mg/kg/injection, schedule: Q01DX010 (ip), vehicle: saline 97 % of control | dose: 50.0 mg/kg/injection, schedule: Q01DX010 (ip), vehicle: saline 91 % of control

C=CS(C=C)=NS(=O)(=O)c1ccc(C)cc1
inactive: dose: 1.56 mg/kg/injection, schedule: Q01DX009 (ip), vehicle: Klucel (hydroxypropylcellulose) (HPC) 97 % of control and 107 % of control | dose: 3.12 mg/kg/injection, schedule: Q01DX009 (ip), vehicle: Klucel (hydroxypropylcellulose) (HPC) 100 % of control and 105 % of control | dose: 6.25 mg/kg/injection, schedule: Q01DX009 (ip), vehicle: Klucel (hydroxypropylcellulose) (HPC) 95 % of control and 103 % of control | dose: 12.5 mg/kg/injection, schedule: Q01DX009 (ip), vehicle: Klucel (hydroxypropylcellulose) (HPC) 100 % of control and 107 % of control | dose: 25.0 mg/kg/injection, schedule: Q01DX009 (ip), vehicle: Klucel (hydroxypropylcellulose) (HPC) 97 % of control and 105 % of control

Clc1cccc(-c2nc3ccccc3c3ccccc23)c1
inactive: [2] 93 % of control | [4] 98 % of control

CC(=O)OC1C(O)C(OC(=O)c2ccccc2)C(OC(C)=O)C(OC(C)=O)C1OC(C)=O (configuration not stated)
inactive: dose: 200.0 mg/kg/injection, schedule: Q01DX009 (ip), vehicle: Klucel (hydroxypropylcellulose) (HPC) 91 % of control | dose: 400.0 mg/kg/injection, schedule: Q01DX009 (ip), vehicle: Klucel (hydroxypropylcellulose) (HPC) 88 % of control

COc1cc(Cl)ccc1NC(=O)OCCOc1ccc(C(C)(C)C)cc1
inactive: dose: 50.0 mg/kg/injection, schedule: Q01DX009 (ip), vehicle: saline with Tween-80 103 % of control | [1] 95 % of control | [5] 95 % of control

CN(C)c1ccc(/C=N/Nc2ncnc(Cl)c2N)cc1
inactive: dose: 100.0 mg/kg/injection, schedule: Q01DX001 (ip), vehicle: carboxymethylcellulose (CMC) 98 % of control | dose: 200.0 mg/kg/injection, schedule: Q01DX001 (ip), vehicle: carboxymethylcellulose (CMC) 91 % of control | dose: 400.0 mg/kg/injection, schedule: Q01DX001 (ip), vehicle: carboxymethylcellulose (CMC) 95 % of control

Cn1ncc2c1C(=O)c1nc(-c3ccccc3)c(-c3ccccc3)nc1C2=O
inactive: dose: 50.0 mg/kg/injection, schedule: Q04DX003 (ip), vehicle: saline 98 % of control | [6] 92 % of control

Cc1ccc(OCCOc2ccc(C(=O)O)cc2)cc1
inactive: dose: 7.5 mg/kg/injection, schedule: Q01DX009 (ip), vehicle: Klucel (hydroxypropylcellulose) (HPC) 100 % of control | dose: 15.0 mg/kg/injection, schedule: Q01DX009 (ip), vehicle: Klucel (hydroxypropylcellulose) (HPC) 98 % of control | dose: 30.0 mg/kg/injection, schedule: Q01DX009 (ip), vehicle: Klucel (hydroxypropylcellulose) (HPC) 96 % of control

O=C(COc1cccc(Cl)c1)NCc1ccccc1
inactive: [2] 99 % of control | [3] 96 % of control | [4] 99 % of control

COC1OC(CO)C(O)C(O)C1O (configuration not stated)
inactive: [7] 101 % of control and 105 % of control | [6] 97 % of control | dose: 200.0 mg/kg/injection, schedule: Q01DX001 (ip), vehicle: saline 108 % of control and 105 % of control | dose: 200.0 mg/kg/injection, schedule: Q04DX003 (ip), vehicle: saline 102 % of control | dose: 400.0 mg/kg/injection, schedule: Q01DX001 (ip), vehicle: saline 101 % of control and 105 % of control | dose: 400.0 mg/kg/injection, schedule: Q04DX003 (ip), vehicle: saline 97 % of control

Cc1cc2oc(=O)cc(O)c2c(=O)o1
inactive: [1] 96 % of control | [2] 94 % of control | [5] 96 % of control | [3] 97 % of control | [4] 98 % of control

Nc1nc(-c2cccc([N+](=O)[O-])c2)c(N=Nc2ccc([N+](=O)[O-])cc2)s1
inactive: dose: 100.0 mg/kg/injection, schedule: Q01DX001 (ip), vehicle: saline with Tween-80 93 % of control | dose: 200.0 mg/kg/injection, schedule: Q01DX001 (ip), vehicle: saline with Tween-80 95 % of control

C/C([O-])=C/[S+](C)(=O)N(C)C (configuration not stated)
inactive: dose: 25.0 mg/kg/injection, schedule: Q01DX001 (ip), vehicle: saline 103 % of control | dose: 50.0 mg/kg/injection, schedule: Q01DX001 (ip), vehicle: saline 109 % of control | [7] 96 % of control

Cc1cn(C2CC(O)C(COC(=O)Nc3cccc4ccccc34)O2)c(=O)[nH]c1=O (configuration not stated)
inactive: dose: 12.5 mg/kg/injection, schedule: Q01DX005 (ip), vehicle: other 100 % of control | dose: 25.0 mg/kg/injection, schedule: Q01DX005 (ip), vehicle: other 100 % of control | dose: 50.0 mg/kg/injection, schedule: Q01DX005 (ip), vehicle: other 90 % of control | dose: 100.0 mg/kg/injection, schedule: Q01DX005 (ip), vehicle: other 94 % of control | dose: 200.0 mg/kg/injection, schedule: Q01DX005 (ip), vehicle: other 94 % of control

C=CCOCC(O)C[As](=O)(O)c1cccc(Cl)c1 (configuration not stated)
inactive: dose: 6.25 mg/kg/injection, schedule: Q04DX003 (ip), vehicle: saline with Tween-80 103 % of control | dose: 12.5 mg/kg/injection, schedule: Q04DX003 (ip), vehicle: saline with Tween-80 119 % of control

COc1cc(NCC(C)(O)CN2CCCC(C)C2C)c2ncccc2c1 (configuration not stated)
inactive: dose: 3.12 mg/kg/injection, schedule: Q01DX009 (ip), vehicle: saline 101 % of control | dose: 6.25 mg/kg/injection, schedule: Q01DX009 (ip), vehicle: saline 101 % of control | dose: 12.5 mg/kg/injection, schedule: Q01DX009 (ip), vehicle: saline 101 % of control | [8] 103 % of control | [9] 102 % of control

CSc1nnnn1-c1ccccc1
inactive: dose: 50.0 mg/kg/injection, schedule: Q01DX009 (ip), vehicle: Klucel (hydroxypropylcellulose) (HPC) 111 % of control | dose: 100.0 mg/kg/injection, schedule: Q01DX009 (ip), vehicle: Klucel (hydroxypropylcellulose) (HPC) 104 % of control

Nc1cnc(/C=C/c2ccccc2)nc1
inactive: dose: 75.0 mg/kg/injection, schedule: Q01DX001 (ip), vehicle: other 104 % of control | dose: 150.0 mg/kg/injection, schedule: Q01DX001 (ip), vehicle: other 102 % of control

C/C(=N\NC(=O)c1ccccc1)c1ccccc1
inactive: [1] 98 % of control | [5] 106 % of control | dose: 400.0 mg/kg/injection, schedule: Q01DX009 (ip), vehicle: saline with Tween-80 102 % of control

CC(=O)NCCCCCCNC(C)=O
inactive: [8] 96 % of control | [9] 100 % of control | dose: 100.0 mg/kg/injection, schedule: Q01DX009 (ip), vehicle: saline 100 % of control | dose: 200.0 mg/kg/injection, schedule: Q01DX009 (ip), vehicle: saline 94 % of control | dose: 400.0 mg/kg/injection, schedule: Q01DX009 (ip), vehicle: saline 100 % of control | dose: 800.0 mg/kg/injection, schedule: Q01DX009 (ip), vehicle: saline 93 % of control
